Test system: S. aureus strains
Assay: microbe, parasite or virus in culture
Assay type: cell-based
Experimental: Grey boxes indicate lines on graph depicted in FIG. 5B. […] Vancomycin, 16 μg/mL; AP-SA02, 0.1 pg/mL.
FIG. 6A is data showing bacterial growth measured by turbidity (absorbance at 600 nm) in the presence of AP-SA02 and vancomycin in a checkerboard assay. Grey boxes show lines on graph depicted in FIG. 6B. […] Vancomycin, 2 μg/mL.
Standard therapy for subjects with a S. aureus infection includes vancomycin and daptomycin. Since subjects who receive AP-SA02 are likely to be on these therapies, the effect of AP-SA02 on these antibiotics and vice versa was assessed. Using the standard checkerboard assay, the minimum inhibitory concentration of each antimicrobial alone or in combination with each other, was used to calculate whether two antimicrobials are synergistic, antagonistic, or indifferent (Table 3).

Q: Which results are given for CN[C@H](CC(C)C)C(=O)N[C@H]1C(=O)N[C@@H](CC(N)=O)C(=O)N[C@H]2C(=O)N[C@H]3C(=O)N[C@H](C(=O)N[C@H](C(=O)O)c4cc(O)cc(O)c4-c4cc3ccc4O)[C@H](O)c3ccc(c(Cl)c3)Oc3cc2cc(c3O[C@@H]2O[C@H](CO)[C@@H](O)[C@H](O)[C@H]2O[C@H]2C[C@](C)(N)[C@H](O)[C@H](C)O2)Oc2ccc(cc2Cl)[C@H]1O [vancomycin]?
A: MIC (Staphylococcus aureus): > 16 µg/mL; breakpoint for vancomycin in the presence of phage (changed from resistant or intermediate to the sensitive range): 0.5 to 2 µg/mL
